# Test results from US12268694B2, “Combination pharmaceutical agents as RSV inhibitors” (Enanta Pharmaceuticals, Inc., priority 2017, dated 2025).
# pEC50: −log10 of the molar value.
# System: genotype A, "Long" strain RSV
# Test: RSV-A assay: CPE protection in HEp-2 cells, ATPlite readout
# Format: cell-based, human respiratory syncytial virus
# Conditions: HEp-2 cells, RSV-A Long strain, ATPlite readout; read-out: Human RSV-A (“Long” strain) EC50
# Description: HEp-2 cells, (originally derived from tumors grown in irradiated-cortisonised weanling rats that had been injected with epidermoid carcinoma tissue from a person's larynx, but later found to be indistinguishable from HeLa cells by PCR DNA analysis), were used for the culturing of genotype A, “Long” strain RSV. Flasks were inoculated with RSV and viral stocks were collected once cytopathic effect (CPE) was greater than 90%. Viral stocks in 25% sucrose media were snap frozen using liquid nitrogen to increase viral stability. Viral stock titers were quantified by tissue culture infectious dose 50% (TCID50) using 8,000 cells per well and 3-fold viral dilutions across a 96-well plate, cultured for 4 days. Viral stock titers were also quantified by a plaque forming unit assay, as described elsewhere.
# Following extensive parameter testing, the final assay is run as follows: HEp-2 cells are seeded into the inner 60 wells of a 96-well plate at 8,000 cells per well in a volume of 50 μL using Growth Media (DMEM without phenol red, 1% L-Glut, 1% Penn/Strep, 1% nonessential amino acids, 10% heat-inactivated FBS). 2-fold serial dilutions of control and test compounds are added to the wells in duplicate in a total volume of 25 μL. Viral stock is then added to the wells at a multiplicity of infection (MOI) of 0.1 in a volume of 25 μL, bringing the total volume of each well to 100 μL. The MOI is calculated using the PFU/mL, or TCID50 if unavailable. Each 96-well plate has a control column of 6 wells with cells and virus but no compound (negative control, max CPE), a column with cells but no compound or virus (positive control, minimum CPE), and a column with no cells or virus or compound (background plate/reagent control). The control wells with cells but no virus are given an additional 25 μL of growth media containing an equal quantity of sucrose as those wells receiving the viral stock in order to keep consistent in media and volume conditions. The outer wells of the plate are filled with 125 μL of moat media (DMEM, 1% Penn/Strep) to act as a thermal and evaporative moat around the test wells. Following a 5-day incubation period, the plates are read using ATPlite (50 μL added per well), which quantifies the amount of ATP (a measure of cell health) present in each well. Assay plates are read using the Envision luminometer. In parallel, cytotoxicity is examined on an additional 96-well plate treated in an identical manner, but substituting the 25 μL of viral stock for 25 μL of growth media. […] EC50 ranges are as follows: A <0.4 μM; B 0.4-0.8 μM; C >0.8 μM and CC50 ranges are as follows: A >50 μM; B 10-50 μM; C <10 μM.
row,Compound,pEC50
1,"O=C1Nc2c(F)cccc2C(c2ccccc2)=N[C@@H]1Nc1nnc(-c2cccnc2N2CCOCC2)o1 (single isomer, unassigned) [Example 357]",< 6.10
2,"O=C1Nc2c(F)cccc2C(c2ccccc2)=N[C@@H]1Nc1nnc(-c2ncc(C(F)(F)F)cc2N2CCOCC2)o1 (single isomer, unassigned) [Example 359]",> 6.40
3,O=C1Nc2ccccc2C(c2ccccc2)=NC1Nc1nnc(-c2ncc(F)cc2N2CCOCC2)o1 (stereo not shown) [Example 137],< 6.10
4,O=C1Nc2ccccc2C(c2ccccc2)=NC1Nc1nnc(-c2ncc(F)cc2N2CCOCC2)o1 (stereo not shown) [Example 138],> 6.40
5,O=C1Nc2ccccc2C(c2ccccc2)=NC1Nc1nnc(-c2ccc(F)nc2N2CCOCC2)o1 (stereo not shown) [Example 149],6.10 to 6.40
6,O=C1Nc2ccccc2C(c2ccccc2)=NC1Nc1nnc(-c2ccc(F)nc2N2CCOCC2)o1 (stereo not shown) [Example 150],> 6.40

# Same assay, conditions: human respiratory syncytial virus, HEp-2, read-out: Human RSV-A (“Long” strain) EC50
row,Compound,pEC50
1,O=C1Nc2ccccc2C(c2ccccc2)=N[C@@H]1Nc1nnc(-c2ncc(C(F)(F)F)cc2N2CCOC3CC32)o1 (mixture of isomers) [Example 466],> 6.40
2,O=C1Nc2ccccc2C(c2ccccc2)=N[C@@H]1Nc1nnc(-c2ncc(C(F)(F)F)cc2N2CCOC(C(F)(F)F)C2)o1 (mixture of isomers) [Example 467],> 6.40
3,CCOC1(c2nc(-c3nnc(N[C@H]4N=C(c5ccccc5)c5ccccc5NC4=O)o3)c(N3CCOCC3)s2)CCC1 (stereo in doubt) [Example 458],> 6.40
4,N#Cc1ccc(-c2nnc(NC3N=C(c4ccccc4)c4ccccc4NC3=O)o2)nc1 (stereo not shown) [Example 24],6.10 to 6.40
5,COc1cc(-c2nnc(NC3N=C(c4ccccc4)c4ccccc4NC3=O)o2)ccn1 (stereo not shown) [Example 56],< 6.10
6,CCOC(=O)c1nnc(NC2N=C(c3ccccc3)c3ccccc3NC2=O)o1 (stereo not shown) [Example 78],< 6.10
7,O=C1Nc2ccccc2C(c2ccccc2)=NC1Nc1ncc(-c2ccccc2)s1 (stereo not shown) [Example 85],< 6.10
8,O=C1Nc2ccccc2C(c2ccccc2)=NC1Nc1noc(-c2ccccc2)n1 (stereo not shown) [Example 91],< 6.10
9,COc1ccc(CN2C(=O)C(C)(N)N=C(c3ccccc3)c3ccccc32)cc1 (stereo not shown) [Example 102],< 6.10
10,CS(=O)(=O)c1ccc(-c2nnc(NC3N=C(c4ccccc4)c4ccccc4NC3=O)o2)nc1 (stereo not shown) [Example 107],< 6.10
11,COc1ccc(-c2nnc(NC3N=C(c4ccccc4)c4ccccc4NC3=O)o2)nc1Cl (stereo not shown) [Example 109],< 6.10
12,Cc1nc(-c2nnc(NC3N=C(c4ccccc4)c4ccccc4NC3=O)o2)ccc1F (stereo not shown) [Example 110],< 6.10
13,O=C1Nc2ccccc2C(c2ccccc2)=NC1Nc1nnc(-c2cccc(N3CCOCC3)c2)o1 (stereo not shown) [Example 111],< 6.10
14,O=C1Nc2ccccc2C(c2ccccc2)=NC1Nc1nnc(-c2ccc(N3CCOCC3)c(F)c2)o1 (stereo not shown) [Example 112],< 6.10
15,Cc1cc(-c2nnc(NC3N=C(c4ccccc4)c4ccccc4NC3=O)o2)ccc1N1CCOCC1 (stereo not shown) [Example 113],6.10 to 6.40
16,O=C1Nc2ccccc2C(c2ccccc2)=NC1Nc1nnc(-c2ccc(N3CCOCC3)cn2)o1 (stereo not shown) [Example 114],< 6.10
17,O=C1Nc2ccccc2C(c2ccccc2)=NC1Nc1nnc(-c2ccc(N3CCOCC3)nc2)o1 (stereo not shown) [Example 115],> 6.40
18,O=C1Nc2ccccc2C(c2ccccc2)=NC1Nc1nnc(-c2ccc(NC3CCCCC3)cc2)o1 (stereo not shown) [Example 116],< 6.10
19,COCCNc1ccc(-c2nnc(NC3N=C(c4ccccc4)c4ccccc4NC3=O)o2)cc1 (stereo not shown) [Example 117],< 6.10
20,COCCN(C)c1ccc(-c2nnc(NC3N=C(c4ccccc4)c4ccccc4NC3=O)o2)cc1 (stereo not shown) [Example 118],< 6.10
21,O=C1Nc2ccccc2C(c2ccccc2)=NC1Nc1nnc(-c2cc(F)ccc2N2CCOCC2)o1 (stereo not shown) [Example 119],6.10 to 6.40
22,CS(=O)(=O)c1ccc(-c2nnc(NC3N=C(c4ccccc4)c4ccccc4NC3=O)o2)c(N2CCOCC2)c1 (stereo not shown) [Example 121],< 6.10
23,O=C1Nc2ccccc2C(c2ccccc2)=NC1Nc1nnc(-c2ccc(N3CCOCC3)cc2Cl)o1 (stereo not shown) [Example 122],< 6.10

row,Compound,pEC50
1,O=C1Nc2ccccc2C(c2ccccc2)=N[C@@H]1Nc1nnc(-c2ccc(N3CCOCC3)cc2)o1 [Example 124a],> 6.40
2,O=C1Nc2ccccc2C(c2ccccc2)=N[C@H]1Nc1nnc(-c2ccc(N3CCOCC3)cc2)o1 [Example 124b],< 6.10
3,O=C1Nc2ccccc2C(c2ccccc2)=N[C@@H]1Nc1nnc(-c2ccccc2N2CCOCC2)o1 [Example 125a],> 6.40
4,O=C1Nc2ccccc2C(c2ccccc2)=N[C@H]1Nc1nnc(-c2ccccc2N2CCOCC2)o1 [Example 125b],< 6.10
5,O=C1Nc2ccccc2C(c2ccccc2)=N[C@@H]1Nc1nnc(-c2ccc(N3CCOCC3)cc2F)o1 [Example 126a],> 6.40
6,O=C1Nc2ccccc2C(c2ccccc2)=N[C@H]1Nc1nnc(-c2ccc(N3CCOCC3)cc2F)o1 [Example 126b],< 6.10
7,O=C1Nc2ccccc2C(c2ccccc2)=NC1Nc1nnc(-c2ccc(-n3cncn3)cc2N2CCOCC2)o1 (stereo not shown) [Example 128],6.10 to 6.40
8,O=C1Nc2ccccc2C(c2ccccc2)=NC1Nc1nnc(-c2ccc(C(F)(F)F)nc2N2CCOCC2)o1 (stereo not shown) [Example 130],6.10 to 6.40
9,O=C1Nc2ccccc2C(c2ccccc2)=NC1Nc1nnc(-c2ncccc2N2CCOCC2)o1 (stereo not shown) [Example 132],> 6.40
10,O=C1Nc2ccccc2C(c2ccccc2)=NC1Nc1nnc(-c2cnccc2N2CCOCC2)o1 (stereo not shown) [Example 133],6.10 to 6.40
11,O=C1Nc2ccccc2C(c2ccccc2)=NC1Nc1nnc(-c2cnccc2N2CCCCC2)o1 (stereo not shown) [Example 134],< 6.10
12,O=C1Nc2ccccc2C(c2ccccc2)=NC1Nc1nnc(-c2ncc(N3CCOCC3)cc2Cl)o1 (stereo not shown) [Example 135],< 6.10
13,N#Cc1cnc(-c2nnc(NC3N=C(c4ccccc4)c4ccccc4NC3=O)o2)c(N2CCOCC2)c1 (stereo not shown) [Example 140],> 6.40
14,O=C1Nc2ccccc2C(c2ccccc2)=NC1Nc1nnc(-c2ccncc2N2CCCCC2)o1 (stereo not shown) [Example 141],< 6.10
15,O=C1Nc2ccccc2C(c2ccccc2)=NC1Nc1nnc(-c2ccncc2N2CCOCC2)o1 (stereo not shown) [Example 142],6.10 to 6.40
16,O=C1Nc2ccccc2C(c2ccccc2)=NC1Nc1nnc(-c2nccnc2N2CCOCC2)o1 (stereo not shown) [Example 143],> 6.40
17,O=C1Nc2ccccc2C(c2ccccc2)=NC1Nc1nnc(-c2cc(F)cnc2N2CCOCC2)o1 (stereo not shown) [Example 145],6.10 to 6.40
18,O=C1Nc2ccccc2C(c2ccccc2)=NC1Nc1nnc(-c2cc(C(F)(F)F)cnc2N2CCOCC2)o1 (stereo not shown) [Example 146],< 6.10
19,O=C1Nc2ccccc2C(c2ccccc2)=NC1Nc1nnc(-c2ccc(N3CCOCC3)cc2C(F)(F)F)o1 (stereo not shown) [Example 147],< 6.10
20,O=C1Nc2ccccc2C(c2ccccc2)=NC1Nc1nnc(-c2cccc(F)c2N2CCOCC2)o1 (stereo not shown) [Example 148],< 6.10
21,"O=C1Nc2ccccc2C(c2ccccc2)=N[C@@H]1Nc1nnc(-c2ccc(F)nc2N2CCOCC2)o1 [Example 151, (S)-3-((5-(6-fluoro-2-morpholinopyridin-3-yl)-1,3,4-oxadiazol-2-yl)amino)-5-phenyl-1,3-dihydro-2H-benzo[e][1,4]diazepin-2-one]",> 6.40
22,O=C1Nc2ccccc2C(c2ccccc2)=N[C@@H]1Nc1nnc(-c2ccc(C(F)(F)F)cc2N2CCOCC2)o1 [Example 152],> 6.40
23,O=C1Nc2ccccc2C(c2ccccc2)=N[C@@H]1Nc1nnc(-c2ccc(C3CC3)nc2N2CCOCC2)o1 [Example 154],> 6.40
